Among the data in ChEMBL document CHEMBL1157116, “Synthesis of novel benzocoumarin derivatives as lipid lowering agents” (2010) are Activity values, retold here.

Holding throughout (type): functional
Common to all, as to design: scale not given: the % may be the effect or the level left

The nature of assay [1]: Antioxidant activity assessed as inhibition non-enzymatic reactants generated hydroxyl radical production at 100 ug/ml after 90 mins by spectrophotometry.
Assay [2] concerns Rattus norvegicus. As to the kind of experiment: Antihyperlipidemic activity in Charles Foster rat assessed as reduction of triton WR-1339-induced plasma phospholipid level at 25 mg/kg, po after 18 hrs by spectrophotometric analysis.
In assay [3] the test system is Rattus norvegicus. As to the kind of experiment: Antihyperlipidemic activity in Charles Foster rat assessed as reduction of triton WR-1339-induced plasma triglyceride level at 100 mg/kg, po after 18 hrs by spectrophotometric analysis.
The nature of assay [4]: Antioxidant activity assessed as inhibition of xanthine-xanthine oxidase generated superoxide anion radical production assessed as formazone formation at 100 ug/ml after 30 mins by spectrophotometric analysis.
The subject of assay [5] is Rattus norvegicus. As to the kind of experiment: Antihyperlipidemic activity in Charles Foster rat assessed as reduction of triton WR-1339-induced plasma phospholipid level at 100 mg/kg, po after 18 hrs by spectrophotometric analysis.
Assay [6] has as its system Rattus norvegicus. As to the kind of experiment: Antihyperlipidemic activity in Charles Foster rat assessed as reduction of triton WR-1339-induced plasma post heparin lipolytic activity at 100 mg/kg, po after 18 hrs by spectrophotometric analysis.
Assay [7] relates to Rattus norvegicus. As to the kind of experiment: Antihyperlipidemic activity in Charles Foster rat assessed as reduction of triton WR-1339-induced plasma triglyceride level at 25 mg/kg, po after 18 hrs by spectrophotometric analysis.
The subject of assay [8] is Rattus norvegicus. As to the kind of experiment: Antihyperlipidemic activity in Charles Foster rat assessed as reduction of triton WR-1339-induced plasma total cholesterol level at 25 mg/kg, po after 18 hrs by spectrophotometric analysis.
In assay [9] the test system is Rattus norvegicus. As to the kind of experiment: Antihyperlipidemic activity in Charles Foster rat assessed as reduction of triton WR-1339-induced plasma total cholesterol level at 100 mg/kg, po after 18 hrs by spectrophotometric analysis.
Assay [10] in a line: Antioxidant activity assessed as inhibition microsomal lipid peroxidation assessed as malondialdehyde formation at 100 ug/ml by thiobarbituric acid test. To be noted: Microsome.
Assay [11] in a line: Antioxidant activity assessed as inhibition microsomal lipid peroxidation assessed as malondialdehyde formation at 20 ug/ml by thiobarbituric acid test. To be noted: Microsome.
Assay [12] is described as follows: Antioxidant activity assessed as inhibition non-enzymatic reactants generated hydroxyl radical production at 20 ug/ml after 90 mins by spectrophotometry.
Assay [13] in a line: Antioxidant activity assessed as inhibition of xanthine-xanthine oxidase generated superoxide anion radical production assessed as formazone formation at 20 ug/ml after 30 mins by spectrophotometric analysis.

For the molecule `Cc1cc(=O)oc2c1ccc1c(OCc3ccccc3)cccc12`, the Activity in assay [1] is 41%; in the assay on Rattus norvegicus [2], 24%; with Rattus norvegicus [3], 28%; in [4], 40%; in the assay on Rattus norvegicus [5], 29%; with Rattus norvegicus [6], 18%. Moreover, the Activity with Rattus norvegicus [7] was 23%; with Rattus norvegicus [8] it was 26%; in the assay on Rattus norvegicus [9] it was 28%; in assay [10], 38%.

On to `Cc1c(C)c2c(c(C)c1O)CC[C@@](C)(CCC[C@H](C)CCC[C@H](C)CCCC(C)C)O2`, for which the Activity in assay [11] came to 45%.

For `CCOC(=O)COc1cccc2c1ccc1c(C)cc(=O)oc12`, the Activity in [1] is 38%; in assay [4] it was 28%; in assay [10], 37%.

On to `OC[C@@H](O)[C@@H](O)[C@H](O)[C@H](O)CO`, for which the Activity in assay [12] was 48%.

Regarding `Oc1ncnc2[nH]ncc12`, the Activity in [13] was found to be 86%.

For `Cc1ccc(C)c(OCCCC(C)(C)C(=O)O)c1` [GEMFIBROZIL], the Activity amounted to 31% in the assay with Rattus norvegicus [3], 35% in the assay on Rattus norvegicus [5], 24% in the assay with Rattus norvegicus [6] and 36% with Rattus norvegicus [9].

As to `Cc1cc(=O)oc2c1ccc1c(OC(C)c3ccccc3)cccc12` (stereo not drawn), the Activity in the assay with Rattus norvegicus [3] came out at 22%; with Rattus norvegicus [5], 26%; in the assay with Rattus norvegicus [9], 23%.
